From paper PMC2810227, “3-O-Methylfunicone, a Selective Inhibitor of Mammalian Y-Family DNA Polymerases from an Australian Sea Salt Fungal Strain” (Marine Drugs, 2009)
pIC50: −log10 of the molar value.

Key:
rice pol λ = biological target: T1, rice pol λ (Oryza sativa subsp. japonica, UniProt Q67VC8); assay: DNA polymerase assay, plant pol λ; format: biochemical, rice (Oryza sativa L. cv. Nipponbare); details: 100 μM
T1 construct: His; made in house
Description: (§1) Pol α was purified from calf thymus by immuno-affinity column chromatography, as described by Tamai et al.. Recombinant rat pol β was purified from E. coli JMpβ5, as described by Date et al.. The human pol γ catalytic gene was cloned into pFastBac. Histidine-tagged enzyme was expressed using the BAC-TO-BAC HT Baculovirus Expression System according to the supplier’s manual (Life Technologies, MD, USA) and purified using ProBoundresin (Invitrogen Japan, Tokyo, Japan). Human pols δ and ɛ were purified by nuclear fractionation of human peripheral blood cancer cells (Molt-4) using the second subunit of pols δ and ɛ-conjugated affinity column chromatography, respectively. A truncated form of human pol η (residues 1–511) tagged with His6 at its C-terminal was expressed in E. coli cells and purified as described by Kusumoto et al.. A recombinant mouse pol ι tagged with His6 at its C-terminal was expressed and purified by Ni-NTA column chromatography as described elsewhere (Masutani et al., in preparation). […]
(§2) The compounds were dissolved in distilled dimethyl sulfoxide (DMSO) at various concentrations and sonicated for 30 sec. […] Activity without the inhibitor was considered 100%, and the remaining activity at each concentration of the inhibitor was determined relative to this value. […]

T4 polynucleotide kinase = biological target: T2, T4 polynucleotide kinase (Enterobacteria phage T4, UniProt P06855); assay: T4 polynucleotide kinase assay; format: biochemical; details: 100 μM
T2 construct: purchased Takara Bio (Tokyo, Japan)
Description: as §1, with “al..” for “al.. A recombinant mouse pol ι tagged with His6 at its C-terminal was expressed and purified by Ni-NTA column chromatography as described elsewhere (Masutani et al., in preparation).”
(§3) The activities of calf primase of pol α, human telomerase, T7 RNA polymerase, mouse IMP dehydrogenase, human DNA topoisomerases I and II, T4 polynucleotide kinase and bovine DNase I were measured in standard assays according to the manufacturer’s specifications, as described by Tamiya-Koizumi et al., Oda et al., Nakayama et al., Mizushina et al., Ishimaru et al., Soltis et al. and Lu et al., respectively.

bovine DNase I = biological target: T3, bovine DNase I (Bos taurus, UniProt P00639); assay: DNase I assay; format: biochemical; details: 100 μM
T3 construct: Calf thymus TdT and bovine pancreas DNase I were obtained from Stratagene Cloning Systems; purchased Stratagene Cloning Systems (La Jolla, CA, USA); host or cells: bovine pancreas (tissue)
Description: as §1, with “al..” for “al.. A recombinant mouse pol ι tagged with His6 at its C-terminal was expressed and purified by Ni-NTA column chromatography as described elsewhere (Masutani et al., in preparation).”
as §3

pol α from calf thymus = biological target: T4, pol α from calf thymus (Bos taurus, UniProt A0AAA9TD94); assay: DNA polymerase assay, pol α; format: biochemical; details: 100 μM
T4 construct: Pol α was purified from calf thymus; from tissue; host or cells: calf thymus
Description: as §1, §2

human pol κ = biological target: T5, human pol κ (Homo sapiens, UniProt Q9UBT6); assay: DNA polymerase assay, pol κ; format: biochemical
T5 construct: A truncated form of pol κ (residues 1–560) with 6 x His-tags attached at the C-terminus; 6xHis (C); made in house; host or cells: E. coli
T5 sequence (Q9UBT6 1-560): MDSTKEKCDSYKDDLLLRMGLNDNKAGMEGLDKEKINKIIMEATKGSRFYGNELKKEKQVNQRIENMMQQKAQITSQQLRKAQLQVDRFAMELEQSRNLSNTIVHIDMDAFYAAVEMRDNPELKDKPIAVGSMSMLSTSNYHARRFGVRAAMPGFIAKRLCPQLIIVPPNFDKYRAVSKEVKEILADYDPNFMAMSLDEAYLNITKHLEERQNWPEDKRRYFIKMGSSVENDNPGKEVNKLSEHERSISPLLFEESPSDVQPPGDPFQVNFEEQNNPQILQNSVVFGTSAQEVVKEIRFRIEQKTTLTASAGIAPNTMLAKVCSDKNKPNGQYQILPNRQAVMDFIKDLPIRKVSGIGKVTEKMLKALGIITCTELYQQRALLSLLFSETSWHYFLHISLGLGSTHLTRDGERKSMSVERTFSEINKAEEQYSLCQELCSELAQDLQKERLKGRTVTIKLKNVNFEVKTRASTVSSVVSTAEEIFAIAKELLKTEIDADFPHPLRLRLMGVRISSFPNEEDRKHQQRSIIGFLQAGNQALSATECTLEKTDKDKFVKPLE
Description: as §1, §2

fruit fly pol ɛ = biological target: T6, fruit fly pol ɛ (Drosophila melanogaster, UniProt Q9VCN1); assay: DNA polymerase assay, insect pol ɛ; format: biochemical; details: 100 μM
T6 construct: purified from early embryos of Drosophila melanogaster; from tissue; host or cells: early embryos of Drosophila melanogaster
Description: as §1, §2

human pol λ = biological target: T7, human pol λ (Homo sapiens, UniProt Q9UGP5); assay: DNA polymerase assay, pol λ; format: biochemical; details: 100 μM
T7 construct: His; made in house
Description: as §1, §2

human telomerase = human telomerase (Homo sapiens, UniProt O14746); assay: Telomerase assay; format: biochemical; details: 100 μM
Procedure: as §3

T1 sequence (Q67VC8 whole entry): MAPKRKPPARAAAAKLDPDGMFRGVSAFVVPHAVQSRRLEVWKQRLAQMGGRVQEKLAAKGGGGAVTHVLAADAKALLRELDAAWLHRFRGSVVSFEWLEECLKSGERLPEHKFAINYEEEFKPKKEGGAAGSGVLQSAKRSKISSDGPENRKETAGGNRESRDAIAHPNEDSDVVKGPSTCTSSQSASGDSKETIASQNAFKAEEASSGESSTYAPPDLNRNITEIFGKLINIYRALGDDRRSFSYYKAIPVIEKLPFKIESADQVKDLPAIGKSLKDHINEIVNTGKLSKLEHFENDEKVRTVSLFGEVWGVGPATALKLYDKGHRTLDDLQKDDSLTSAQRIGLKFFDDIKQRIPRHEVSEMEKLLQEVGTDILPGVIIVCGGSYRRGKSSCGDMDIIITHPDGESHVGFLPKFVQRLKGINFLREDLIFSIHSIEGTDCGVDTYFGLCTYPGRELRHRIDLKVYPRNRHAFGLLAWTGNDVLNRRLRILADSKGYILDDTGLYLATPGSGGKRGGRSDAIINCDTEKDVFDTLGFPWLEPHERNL
T2 sequence (P06855 whole entry): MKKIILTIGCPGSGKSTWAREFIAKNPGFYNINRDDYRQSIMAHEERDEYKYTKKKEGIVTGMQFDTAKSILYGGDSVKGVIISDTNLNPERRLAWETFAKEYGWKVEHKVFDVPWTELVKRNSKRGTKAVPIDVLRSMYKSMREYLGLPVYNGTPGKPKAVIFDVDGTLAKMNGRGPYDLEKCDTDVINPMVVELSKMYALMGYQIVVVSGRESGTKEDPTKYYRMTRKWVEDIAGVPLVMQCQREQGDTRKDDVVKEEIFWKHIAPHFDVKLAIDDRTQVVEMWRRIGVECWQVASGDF
T3 sequence (P00639 23-282): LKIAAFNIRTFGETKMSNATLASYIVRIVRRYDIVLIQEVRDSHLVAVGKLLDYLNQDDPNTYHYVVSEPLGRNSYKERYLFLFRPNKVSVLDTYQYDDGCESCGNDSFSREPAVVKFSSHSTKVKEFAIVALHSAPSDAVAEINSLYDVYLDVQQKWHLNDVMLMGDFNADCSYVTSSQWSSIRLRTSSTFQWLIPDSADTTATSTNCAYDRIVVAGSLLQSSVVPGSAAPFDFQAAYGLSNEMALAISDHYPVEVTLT
human telomerase, sequence (O14746 whole entry): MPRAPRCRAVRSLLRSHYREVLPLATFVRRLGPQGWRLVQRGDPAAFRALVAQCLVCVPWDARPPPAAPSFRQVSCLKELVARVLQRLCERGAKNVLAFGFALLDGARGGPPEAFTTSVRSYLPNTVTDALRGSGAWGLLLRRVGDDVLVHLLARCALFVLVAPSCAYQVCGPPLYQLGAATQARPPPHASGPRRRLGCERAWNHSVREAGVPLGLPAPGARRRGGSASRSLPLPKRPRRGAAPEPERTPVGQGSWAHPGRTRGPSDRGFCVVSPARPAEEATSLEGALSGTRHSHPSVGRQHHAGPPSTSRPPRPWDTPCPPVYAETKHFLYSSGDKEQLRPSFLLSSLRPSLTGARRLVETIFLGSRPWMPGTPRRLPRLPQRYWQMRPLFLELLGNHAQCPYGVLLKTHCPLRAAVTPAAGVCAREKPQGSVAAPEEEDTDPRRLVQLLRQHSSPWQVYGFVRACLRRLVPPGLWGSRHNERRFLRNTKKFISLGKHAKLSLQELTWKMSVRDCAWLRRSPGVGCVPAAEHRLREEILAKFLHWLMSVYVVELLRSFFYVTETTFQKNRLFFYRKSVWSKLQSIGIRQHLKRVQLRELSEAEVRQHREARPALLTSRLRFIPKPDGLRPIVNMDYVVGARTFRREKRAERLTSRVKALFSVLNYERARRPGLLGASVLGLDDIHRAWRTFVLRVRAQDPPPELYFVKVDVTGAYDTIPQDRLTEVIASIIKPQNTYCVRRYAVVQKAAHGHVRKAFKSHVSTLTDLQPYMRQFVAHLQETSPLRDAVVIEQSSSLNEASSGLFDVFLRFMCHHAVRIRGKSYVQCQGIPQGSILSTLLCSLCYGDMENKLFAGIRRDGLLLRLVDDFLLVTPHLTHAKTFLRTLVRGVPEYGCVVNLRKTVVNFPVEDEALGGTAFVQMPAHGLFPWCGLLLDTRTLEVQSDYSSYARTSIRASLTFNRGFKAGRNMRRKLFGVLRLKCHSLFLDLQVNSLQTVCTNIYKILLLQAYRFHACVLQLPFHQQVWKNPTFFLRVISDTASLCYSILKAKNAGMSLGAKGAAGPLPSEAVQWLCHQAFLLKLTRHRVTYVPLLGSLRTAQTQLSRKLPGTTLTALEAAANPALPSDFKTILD
T7 sequence (Q9UGP5 whole entry): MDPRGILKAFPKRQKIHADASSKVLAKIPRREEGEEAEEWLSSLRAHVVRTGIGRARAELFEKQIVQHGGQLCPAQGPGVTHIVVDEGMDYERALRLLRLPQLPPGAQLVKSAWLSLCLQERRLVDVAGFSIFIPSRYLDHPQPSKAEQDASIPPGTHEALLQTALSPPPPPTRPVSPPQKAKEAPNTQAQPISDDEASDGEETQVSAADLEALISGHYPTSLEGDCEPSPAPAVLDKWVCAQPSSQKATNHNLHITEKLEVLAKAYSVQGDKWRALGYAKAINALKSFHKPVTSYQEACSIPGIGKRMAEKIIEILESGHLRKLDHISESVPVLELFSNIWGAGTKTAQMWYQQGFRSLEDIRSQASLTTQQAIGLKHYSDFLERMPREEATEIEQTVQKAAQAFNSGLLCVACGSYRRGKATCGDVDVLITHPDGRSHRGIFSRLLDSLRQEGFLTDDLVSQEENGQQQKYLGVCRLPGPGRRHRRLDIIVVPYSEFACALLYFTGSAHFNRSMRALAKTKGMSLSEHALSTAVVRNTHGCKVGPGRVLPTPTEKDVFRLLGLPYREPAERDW
T6 sequence (Q9VCN1 whole entry): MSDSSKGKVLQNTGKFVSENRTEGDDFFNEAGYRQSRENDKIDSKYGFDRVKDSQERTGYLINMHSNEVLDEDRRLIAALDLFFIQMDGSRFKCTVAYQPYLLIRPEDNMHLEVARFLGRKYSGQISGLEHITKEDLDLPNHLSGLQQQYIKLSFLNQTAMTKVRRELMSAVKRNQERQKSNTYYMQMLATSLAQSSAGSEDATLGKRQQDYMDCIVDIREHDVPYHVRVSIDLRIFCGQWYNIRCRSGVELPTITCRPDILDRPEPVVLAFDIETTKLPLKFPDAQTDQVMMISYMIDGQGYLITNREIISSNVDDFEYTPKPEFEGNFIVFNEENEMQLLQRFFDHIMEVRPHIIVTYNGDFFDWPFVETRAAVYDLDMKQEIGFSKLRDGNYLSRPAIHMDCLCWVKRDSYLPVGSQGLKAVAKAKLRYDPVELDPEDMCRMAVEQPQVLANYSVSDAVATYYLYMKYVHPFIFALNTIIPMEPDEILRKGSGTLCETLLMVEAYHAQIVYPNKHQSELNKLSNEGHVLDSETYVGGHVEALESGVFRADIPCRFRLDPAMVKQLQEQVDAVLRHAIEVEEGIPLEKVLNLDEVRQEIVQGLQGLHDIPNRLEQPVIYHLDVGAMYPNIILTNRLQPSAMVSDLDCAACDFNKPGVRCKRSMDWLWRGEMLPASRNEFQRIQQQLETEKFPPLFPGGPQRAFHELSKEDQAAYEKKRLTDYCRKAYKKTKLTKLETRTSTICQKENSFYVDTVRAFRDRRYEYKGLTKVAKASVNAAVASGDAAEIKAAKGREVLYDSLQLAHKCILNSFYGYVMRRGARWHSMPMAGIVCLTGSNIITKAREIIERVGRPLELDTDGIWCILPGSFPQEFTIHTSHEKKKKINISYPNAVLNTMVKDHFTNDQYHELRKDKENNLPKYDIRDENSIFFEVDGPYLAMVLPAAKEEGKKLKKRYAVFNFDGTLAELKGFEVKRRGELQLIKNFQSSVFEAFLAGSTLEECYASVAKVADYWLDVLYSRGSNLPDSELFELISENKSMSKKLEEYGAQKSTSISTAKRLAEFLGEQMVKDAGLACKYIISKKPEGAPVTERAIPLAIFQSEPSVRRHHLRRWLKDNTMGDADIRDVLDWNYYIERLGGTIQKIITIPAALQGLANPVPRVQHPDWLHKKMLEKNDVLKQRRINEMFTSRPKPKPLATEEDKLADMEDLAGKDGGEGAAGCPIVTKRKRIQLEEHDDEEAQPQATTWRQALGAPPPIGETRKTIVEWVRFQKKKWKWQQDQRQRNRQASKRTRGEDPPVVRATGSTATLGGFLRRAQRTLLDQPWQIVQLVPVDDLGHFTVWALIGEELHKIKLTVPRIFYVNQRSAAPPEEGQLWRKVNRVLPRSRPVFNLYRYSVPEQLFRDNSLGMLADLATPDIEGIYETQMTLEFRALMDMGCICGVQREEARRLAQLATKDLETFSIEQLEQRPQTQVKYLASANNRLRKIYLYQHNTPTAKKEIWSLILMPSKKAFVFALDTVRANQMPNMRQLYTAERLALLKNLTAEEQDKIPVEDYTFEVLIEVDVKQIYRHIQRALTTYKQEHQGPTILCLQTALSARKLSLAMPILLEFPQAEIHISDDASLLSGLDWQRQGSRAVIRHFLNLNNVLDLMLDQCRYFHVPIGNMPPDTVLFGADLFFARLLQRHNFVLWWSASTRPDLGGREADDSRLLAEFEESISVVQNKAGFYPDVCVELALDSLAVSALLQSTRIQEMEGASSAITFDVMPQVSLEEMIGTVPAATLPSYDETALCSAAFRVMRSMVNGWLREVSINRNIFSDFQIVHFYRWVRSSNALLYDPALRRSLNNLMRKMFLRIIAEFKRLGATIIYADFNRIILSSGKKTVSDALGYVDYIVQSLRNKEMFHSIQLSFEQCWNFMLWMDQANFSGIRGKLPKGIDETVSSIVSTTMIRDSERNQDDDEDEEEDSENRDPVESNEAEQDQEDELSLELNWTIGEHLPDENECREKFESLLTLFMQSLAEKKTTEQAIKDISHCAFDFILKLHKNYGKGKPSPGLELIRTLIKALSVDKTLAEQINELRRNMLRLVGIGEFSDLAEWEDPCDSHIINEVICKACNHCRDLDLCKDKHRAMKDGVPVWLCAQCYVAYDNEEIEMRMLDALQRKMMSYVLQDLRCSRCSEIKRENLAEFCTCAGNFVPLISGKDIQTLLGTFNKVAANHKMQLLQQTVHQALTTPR

SMILES: C/C=C/c1occ(C(=O)c2c(OC)cc(OC)cc2C(=O)OC)c(=O)c1OC [compound 1, 3-O-methylfunicone]
- effect on rice pol λ activity (rice pol λ): no effect
- effect on T4 polynucleotide kinase activity (T4 polynucleotide kinase): did not influence
- effect on bovine DNase I activity (bovine DNase I): did not influence
- effect on pol α activity (pol α from calf thymus): hardly influenced
- effect on pol κ activity (human pol κ; 100 μM): selectively inhibit
- pIC50 (human pol κ; poly(dA)/oligo(dT)18 and dTTP, 0.05 units enzyme, read-out: 50% inhibition of pol κ (IC50)): 4.90
- effect on fruit fly pol ɛ activity (fruit fly pol ɛ): hardly influenced
- effect on pol λ activity (human pol λ): hardly influenced
- effect on human telomerase activity (human telomerase): did not influence
